How the values were obtained:
eEF2K = eEF2K (Homo sapiens, UniProt O00418); conditions: known selenazine inhibitors; cited from earlier work
eEF2 kinase = eEF2 kinase (Homo sapiens, UniProt O00418); assay: eEF2 kinase activity assay with purified eEF2 (33P-ATP, SDS-PAGE, autoradiography); type: biochemical; conditions: purified eEF2, FIG. 1
Description: Recombinant eEF2 kinase (0.5 μg) was incubated with purified rabbit reticulocyte eEF2 (0.5 μg) in a reaction mixture consisting of 50 mM Hepes-KOH pH 6.6, 10 mM magnesium acetate, 5 mM DTT, 100 μM CaCl2, 0.5 μg calmodulin, 50 μM ATP, and 0.2 μCi [γ-^33P]-ATP (3000 Ci/mmol). The reactions were run at 30° C. for 15 minutes, and were terminated by incubation in an ice/water bath and addition of Laemmli sample buffer. Samples were analyzed by SDS-PAGE and autoradiography.

glioma cell lines = conditions: by inhibiting eEF2-K; Parmer et al, 1997; cited from earlier work

Chain of eEF2K (O00418 whole entry): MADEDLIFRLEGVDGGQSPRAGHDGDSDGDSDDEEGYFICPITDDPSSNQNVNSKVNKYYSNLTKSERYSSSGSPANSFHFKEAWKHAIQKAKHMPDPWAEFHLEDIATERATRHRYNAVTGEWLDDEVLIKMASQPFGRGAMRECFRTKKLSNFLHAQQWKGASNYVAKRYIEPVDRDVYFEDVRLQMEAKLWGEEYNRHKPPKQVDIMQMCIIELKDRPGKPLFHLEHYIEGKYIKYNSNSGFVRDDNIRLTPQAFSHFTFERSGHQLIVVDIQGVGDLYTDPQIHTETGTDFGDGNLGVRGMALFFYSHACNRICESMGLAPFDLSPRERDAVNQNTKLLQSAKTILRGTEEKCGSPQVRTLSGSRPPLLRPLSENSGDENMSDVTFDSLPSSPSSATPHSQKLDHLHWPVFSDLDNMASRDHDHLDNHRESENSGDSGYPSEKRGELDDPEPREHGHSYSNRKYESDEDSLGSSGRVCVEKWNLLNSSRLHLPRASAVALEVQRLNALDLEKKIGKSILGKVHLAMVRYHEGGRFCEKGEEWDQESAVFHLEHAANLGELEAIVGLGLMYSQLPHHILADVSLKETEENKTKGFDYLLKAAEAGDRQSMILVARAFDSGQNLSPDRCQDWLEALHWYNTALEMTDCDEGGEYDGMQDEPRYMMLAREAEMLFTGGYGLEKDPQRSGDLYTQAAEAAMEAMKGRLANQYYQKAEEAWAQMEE

Row | Compound | inhibition of eEF2K phosphorylative activity (eEF2K) | further results
1 | CCCCCC1=NC(O)(CC)CC[Se]1 (centres unmarked) [PS2] | known to inhibit eEF2K phosphorylative activity | –
2 | CCCCCCCCCCCCC/C=C/[C@@H](O)[C@@H](N)COP(=O)(O)O [sphingosine-1-phosphate] | – | inhibition of eEF2 kinase in vitro (eEF2 kinase): inhibit eEF2 kinase in vitro
3 | CC(=O)c1c(O)c(C)c(O)c(Cc2c(O)c3c(c(C(=O)/C=C/c4ccccc4)c2O)OC(C)(C)C=C3)c1O [Rottlerin] | – | inhibition of growth of glioma cell lines (glioma cell lines): inhibit growth of glioma cell lines
4 | CCC1(O)CC[Se]C(c2ccc(C)cc2)=N1 (centres unmarked) [TS2] | known to inhibit eEF2K phosphorylative activity | –
5 | Cc1ccc(C2=NC(C)(O)CC(C(C)C)[Se]2)cc1 (centres unmarked) [TS4] | known to inhibit eEF2K phosphorylative activity | –

Reference: patent publication US20120178769A1, “NOVEL COMPOUNDS FOR INHIBITING EEF-2 KINASE ACTIVITY” (The University of Medicine and Dentistry, priority 2009, published 2012)
